Measurements taken from patent publication US10202339B2, “Therapeutic compounds and compositions” (AGIOS PHARMACEUTICALS, INC., priority 2012, dated 2019).

These compounds were tested against IDH1 R132H (Homo sapiens (Human), UniProt O75874, R132H) (assay: In vitro assay for IDH1m (R132H) inhibitors, NADPH depletion with resazurin/resorufin detection). Conditions: IDH1 R132H enzyme, 50 minutes at room temperature; read-out: IDH R132H IC50.
Assay type: biochemical
Protocol: Assays were conducted in a volume of 76 μl assay buffer (150 mM NaCl, 10 mM MgCl2, 20 mM Tris pH 7.5, 0.03% bovine serum albumin) as follows in a standard 384-well plate: To 25 ul of substrate mix (8 uM NADPH, 2 mM aKG), 1 μl of test compound was added in DMSO. The plate was centrifuged briefly, and then 25 μl of enzyme mix was added (0.2 μg/ml IDH1 R132H) followed by a brief centrifugation and shake at 100 RPM. The reaction was incubated for 50 minutes at room temperature, then 25 μl of detection mix (30 μM resazurin, […]) was added and the mixture further incubated for 5 minutes at room temperature. The conversion of resazurin to resorufin was detected by fluorescent spectroscopy at Ex544 Em590 c/o 590.
Representative compounds of formula (I) set forth in Tables 1 and 2 were tested in this assay and the results are set forth below in Table 4.

Chain of IDH1 R132H (O75874 whole entry R132H): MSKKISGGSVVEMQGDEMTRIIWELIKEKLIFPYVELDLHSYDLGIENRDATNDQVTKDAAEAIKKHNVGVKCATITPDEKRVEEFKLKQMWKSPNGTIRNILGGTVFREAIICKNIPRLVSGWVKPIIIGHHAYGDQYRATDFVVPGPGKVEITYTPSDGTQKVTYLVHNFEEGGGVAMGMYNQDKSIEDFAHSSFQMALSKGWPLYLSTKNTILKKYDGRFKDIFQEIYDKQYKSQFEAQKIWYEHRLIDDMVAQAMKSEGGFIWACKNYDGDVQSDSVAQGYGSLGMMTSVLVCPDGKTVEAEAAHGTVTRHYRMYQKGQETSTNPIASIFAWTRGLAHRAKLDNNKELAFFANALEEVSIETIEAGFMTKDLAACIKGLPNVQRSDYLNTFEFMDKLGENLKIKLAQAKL

Row | Compound | IC50 [µM]
1 | Cc1ccc(NC(=O)Nc2cccc(C(F)(F)F)c2)cc1S(=O)(=O)Nc1ccc(-c2nn[nH]n2)cc1 [Compound 322] | 1 to 10
2 | Cc1ccc(NC(=O)Nc2cccc(C(F)(F)F)c2)cc1S(=O)(=O)N1CCNCC1 [Compound 323] | 1 to 10
3 | CCOC(=O)COc1ccc(NS(=O)(=O)c2cc(NC(=O)Nc3ccc(C(F)(F)F)cc3)ccc2C)cc1 [Compound 325] | 1 to 10
4 | Cc1ccc(NC(=O)Nc2ccc(C(F)(F)F)cc2)cc1S(=O)(=O)Nc1ccc(OCC(=O)O)cc1 [Compound 326] | 1 to 10
5 | Cc1ccc(NC(=O)Nc2ccc(C(F)(F)F)cc2)cc1S(=O)(=O)Nc1ccc(OS(C)(=O)=O)cc1 [Compound 327] | 1 to 10
6 | CCOC(=O)C(C)Oc1ccc(NS(=O)(=O)c2cc(NC(=O)Nc3ccc(C(F)(F)F)cc3)ccc2C)cc1 (centres unmarked) [Compound 328] | 1 to 10
7 | CC(=O)Nc1ccc(NS(=O)(=O)c2cc(NC(=O)Nc3ccc(C(F)(F)F)cc3)ccc2C)cc1 [Compound 329] | 1 to 10
8 | CCOC(=O)CNc1ccc(NS(=O)(=O)c2cc(NC(=O)Nc3ccc(C(F)(F)F)cc3)ccc2C)cc1 [Compound 330] | 1 to 10
9 | Cc1ccc(NC(=O)Nc2ccc(C(F)(F)F)cc2)cc1S(=O)(=O)Nc1ccc(S(C)(=O)=O)cc1 [Compound 331] | 1 to 10
10 | Cc1ccc(NC(=O)Nc2ccc(C(F)(F)F)cc2)cc1S(=O)(=O)Nc1cccc(CCc2ccccc2)c1 [Compound 332] | 1 to 10
11 | CCc1ccc(NC(=O)Nc2cccc(C(F)(F)F)c2)cc1S(=O)(=O)Nc1ccc(Cl)cc1 [Compound 333] | 1 to 10
12 | Cc1ccc(NC(=O)Nc2cccc(S(=O)(=O)Nc3ccccc3)c2)cc1S(=O)(=O)Nc1ccc(Cl)cc1 [Compound 334] | 1 to 10
13 | Cc1ccc(NC(=O)Nc2cccc(S(=O)(=O)Nc3ccc(Cl)cc3)c2)cc1S(=O)(=O)Nc1ccccc1 [Compound 335] | 1 to 10
14 | Cc1ccc(NC(=O)Nc2ccc(C)c(S(=O)(=O)Nc3ccc(Cl)cc3)c2)cc1S(=O)(=O)Nc1ccc(Cl)cc1 [Compound 336] | 1 to 10
15 | O=C(Nc1cccc(C(F)(F)F)c1)Nc1cc(S(=O)(=O)Nc2ccccc2)ccc1-c1ccsc1 [Compound 351, N-phenyl-4-(thiophen-3-yl)-3-(3-(3-(trifluoromethyl)phenyl)ureido)benzenesulfonamide] | 1 to 10
16 | Cc1ccc(NC(=O)Nc2cccc(C(F)(F)F)c2)cc1S(=O)(=O)Nc1cccc(O)c1 [compound 303] | 1 to 10
17 | N-(1H-benzo[d]imidazol-7-yl)-2-methyl-5-(3-(3-(trifluoromethyl)phenyl)ureido)benzenesulfonamide [Compound 319] | 1 to 10
18 | N-(1H-indol-7-yl)-2-methyl-5-(3-(3-(trifluoromethyl)phenyl)ureido)benzenesulfonamide [Compound 317] | 1 to 10

The next lines start with the values.

Row | IC50 [µM] | Compound
19 | 1 to 10 | Cc1ccc(NC(=O)Nc2cccc(C(F)(F)F)c2)cc1S(=O)(=O)Nc1ccc(C(=O)O)cc1 [Compound 312]
20 | 1 to 10 | Cc1ccc(NC(=O)Nc2cccc(C(F)(F)F)c2)cc1S(=O)(=O)Nc1ccc(S(C)(=O)=O)cc1 [Compound 313]
21 | 1 to 10 | Cc1ccc(NC(=O)Nc2cccc(C(F)(F)F)c2)cc1S(=O)(=O)Nc1cccc(CCc2ccccc2)c1 [Compound 314]
22 | 1 to 10 | Cc1ccc(NC(=O)Nc2cccc(C(F)(F)F)c2)cc1S(=O)(=O)Nc1ccc2c(c1)OCCO2 [Compound 315, N-(2,3-dihydrobenzo[b][1,4]dioxin-6-yl)-2-methyl-5-(3-(3(trifluoromethyl)phenyl)ureido)benzenesulfonamide]
23 | 1 to 10 | Cc1ccc(NC(=O)Nc2cccc(C(F)(F)F)c2)cc1S(=O)(=O)Nc1ccc2cc[nH]c2c1 [Compound 316, N-(1H-indol-6-yl)-2-methyl-5-(3-(3-(trifluoromethyl)phenyl)ureido)benzenesulfonamide]
24 | 1 to 10 | CC(=O)n1ccc2cc(NS(=O)(=O)c3cc(NC(=O)Nc4cccc(C(F)(F)F)c4)ccc3C)ccc21 [Compound 318]
25 | 1 to 10 | Cc1ccc(NC(=O)Nc2cccc(C(F)(F)F)c2)cc1S(=O)(=O)Nc1ccc2c(c1)ncn2C [Compound 320, 2-methyl-N-(1-methyl-1H-benzo[d]imidazol-5-yl)-5-(3-(3-(trifluoromethyl)phenyl)ureido)benzene sulfonamide]
26 | 1 to 10 | Cc1ccc(NC(=O)Nc2cccc(C(F)(F)F)c2)cc1S(=O)(=O)Nc1cccc2ncccc12 [Compound 321]
